From patent US8008488B2 (Abbott GmbH & Co. KG, priority 2003, dated 2011)
Where a name gives a salt, the structure may show the parent alone.

Legend:
[1] = target: T1, human dopamine D3 receptors (Homo sapiens, UniProt P35462); experiment: Dopamine D3 receptor binding, displacement of [125I]-iodosulpride; conditions: membranes from HEK-293 cells with stably expressed human D3 receptors, 0.1 nM [125I]-iodosulpride
T1 construct: expressed in transfected cells
Protocol: (§1) The substance to be tested was dissolved either in methanol/Chremophor® (BASF-AG) or in dimethyl sulfoxide and then diluted with water to the desired concentration.
(§2) Triplicate mixtures were carried out.
The incubation buffer contained 50 mM Tris, 120 mM NaCl, 5 mM KCl, 2 mM CaCl2, 2 mM MgCl2 and 0.1% bovine serum albumin, 10 μM quinolone, 0.1% ascorbic acid (prepared fresh each day). The buffer was adjusted to pH 7.4 with HCl.
(§3) Measurement and Evaluation:
(§4) After incubation at 25° C. for 60 minutes, the mixtures were filtered under vacuum through Whatman GF/B glass fiber filters using a cell harvester. The filters were transferred by a filter transfer system into scintillation vials. After addition of 4 ml of Ultima Gold® (Packard), the samples were shaken for one hour and then the radioactivity was calculated in a beta counter (Packard, Tricarb 2000 or 2200CA). The cp values were converted into dpm by means of a standard quench series with the aid of the instrument's own program.
(§5) Evaluation of the inhibition plots took place by iterative nonlinear regression analysis using the Statistical Analysis System (SAS) similar to the “LIGAND” program described by Munson and Rodbard.

[2] = target: T2, human dopamine D2L receptors (long isoform) (Homo sapiens, UniProt P14416); experiment: Dopamine D2L receptor binding, displacement of [125I]-iodospiperone; conditions: *Ki(D2L)/Ki(D3), HEK-293 membranes, 0.01 nM [125I]-iodospiperone
T2 construct: expressed in transfected cells
T2 sequence (P14416 whole entry, canonical isoform): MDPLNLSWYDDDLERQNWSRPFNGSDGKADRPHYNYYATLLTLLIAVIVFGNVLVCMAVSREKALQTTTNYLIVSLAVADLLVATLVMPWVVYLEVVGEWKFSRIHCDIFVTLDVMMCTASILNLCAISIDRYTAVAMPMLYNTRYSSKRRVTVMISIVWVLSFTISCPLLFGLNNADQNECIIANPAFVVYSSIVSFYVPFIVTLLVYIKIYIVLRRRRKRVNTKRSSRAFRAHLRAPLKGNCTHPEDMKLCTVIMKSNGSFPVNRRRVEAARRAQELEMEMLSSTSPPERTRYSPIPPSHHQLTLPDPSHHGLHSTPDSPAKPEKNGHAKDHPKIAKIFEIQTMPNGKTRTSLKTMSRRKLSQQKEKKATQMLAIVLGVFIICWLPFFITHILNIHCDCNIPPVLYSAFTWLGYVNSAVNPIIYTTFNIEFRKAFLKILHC
Protocol: as §1, §2
The incubation buffer contained 50 mM Tris, 120 mM NaCl, 5 mM KCl, 2 mM CaCl2, 2 mM MgCl2 and 0.1% bovine serum albumin. The buffer was adjusted to pH 7.4 with HCl.
as §3, §4, §5

T1 sequence (P35462 whole entry): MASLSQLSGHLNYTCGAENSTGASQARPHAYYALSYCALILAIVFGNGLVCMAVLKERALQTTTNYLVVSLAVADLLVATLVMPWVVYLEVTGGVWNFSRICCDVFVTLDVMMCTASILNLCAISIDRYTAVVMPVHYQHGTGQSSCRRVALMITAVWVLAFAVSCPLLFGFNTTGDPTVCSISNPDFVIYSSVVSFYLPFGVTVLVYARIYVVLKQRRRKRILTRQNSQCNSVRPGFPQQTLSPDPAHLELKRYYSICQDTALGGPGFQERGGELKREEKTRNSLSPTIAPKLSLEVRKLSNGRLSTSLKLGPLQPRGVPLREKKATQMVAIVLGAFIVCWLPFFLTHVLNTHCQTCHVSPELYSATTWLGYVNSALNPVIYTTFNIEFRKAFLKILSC

Row | Molecule | Ki [1] | Selectivity D3 vs. D2L* [2]
1 | CCCc1cc(N2CCN(CCCCn3ccc(C(C)(C)C)nc3=O)CC2)nc(C(C)(C)C)n1.Cl [Example 21, 1-[4-(4-tert-Butyl-2-oxopyrimidin-1 (2H)-yl)butyl]-4-(2-tert-butyl-6-propylpyrimidin-4-yl)piperazin-1-ium chloride] | 1.94 nM | 96
2 | CCCc1cc(N2CCN(CCCCn3ccc(C)nc3=O)CC2)nc(C(C)(C)C)n1.Cl [Example 35, 4-(2-tert-Butyl-6-propylpyrimidin-4-yl)-1-[4-(4-methyl-2-oxopyrimidin-1 (2H)-yl)butyl]piperazin-1-ium chloride] | 4.96 nM | 116
3 | Cc1cn(CCCCN2CCN(c3cc(C(F)(F)F)cc(C(F)(F)F)c3)CC2)c(=O)[nH]c1=O [Example 125, 1-{4-[4-(3,5-Bis-trifluoromethylphenyl)piperazin-1-yl]butyl}-5-methyl-1H-pyrimidine-2,4-dione] | 6.8 nM | 63
4 | CCCc1cc(N2CCN(C(C)CCCn3ccc(=O)[nH]c3=O)CC2)nc(C(C)(C)C)n1 (centres unmarked) [Example 61, 4-(2-tert-Butyl-6-propylpyrimidin-4-yl)-1-[4-(2,4-dioxo-3,4-dihydro-2H-pyrimidin-1-yl)-1-methylbutyl]piperazin-1-ium fumarate] | 5.84 nM | 28
5 | 1-{4-[4-(2-tert-Butyl-6-propylpyrimidin-4-yl)piperazin-1-yl]butyl}-4-methyl-1H-pyrimidin-2-one [Example 69] | 1.8 nM | 54
6 | 1-{4-[4-(2,3-Dichlorophenyl)piperazin-1-yl]butyl}-5-methyl-1H-pyrimidine-2,4-dione [Example 82] | 0.31 nM | 54
7 | CCCc1cc(N2CCN(CCCCn3ccc(-c4ccsc4)nc3=O)CC2)nc(C(C)(C)C)n1 [Example 93, 1-{4-[4-(2-tert-Butyl-6-propylpyrimidin-4-yl)piperazin-1-yl]butyl}-4-thiophen-3-yl-1H-pyrimidin-2-one] | 0.65 nM | 40
8 | CC(C)(C)c1nc(N2CCN(CCCCn3ccc(-c4ccc(F)cc4)nc3=O)CC2)cc(C(F)(F)F)n1.Cl [Example 45, 4-(2-tert-Butyl-6-trifluoromethylpyrimidin-4-yl)-1-{4-[4-(4-fluorophenyl)-2-oxo-2H-pyrimidin-1-yl]butyl}piperazin-1-ium chloride] | 4.99 nM | 37
9 | Cc1cn(CCCCN2CCN(c3cc(C4CC4)nc(C(C)(C)C)n3)CC2)c(=O)nc1O [Example 17, 1-{4-[4-(2-tert-Butyl-6-cyclopropylpyrimidin-4-yl)piperazin-1-yl]butyl}-4-hydroxy-5-methylpyrimidin-2(1H)-one] | 0.71 nM | 134
10 | CCCc1cc(N2CCN(CCCCn3cc(C)c(O)nc3=O)CC2)nc(C(C)(C)C)n1 [Example 10, 1-{4-[4-(2-tert-Butyl-6-propylpyrimidin-4-yl)piperazin-1-yl]butyl}-4-hydroxy-5-methylpyrimidin-2(1H)-one] | 1.75 nM | 97
11 | CC(C)(C)c1nc(N2CCN(CCCCn3cc(C(F)(F)F)c(=O)[nH]c3=O)CC2)cc(C(F)(F)F)n1 [Example 55, 1-{4-[4-(2-tert-Butyl-6-trifluoromethylpyrimidin-4-yl)piperazin-1-yl]butyl}-5-trifluoromethyl-1H-pyrimidine-2,4-dione] | 5.44 nM | 119
12 | Cc1cn(CCCCN2CCN(c3ccc(F)cc3F)CC2)c(=O)[nH]c1=O [Example 131, 1-{4-[4-(2,4-Difluorophenyl)piperazin-1-yl]butyl}-5-methyl-1H-pyrimidine-2,4-dione] | 25.7 nM | 30
13 | CC(C)(C)c1ccn(CCCCN2CCN(c3cc(C4CC4)nc(C(C)(C)C)n3)CC2)c(=O)n1 [Example 19, 4-tert-Butyl-1-{4-[4-(2-tert-butyl-6-cyclopropylpyrimidin-4-yl)piperazin-1-yl]butyl}pyrimidin-2(1H)-one] | 1.44 nM | 96
14 | Cc1cn(CCCCN2CCN(c3cc(C(F)(F)F)nc(C(C)(C)C)n3)CC2)c(=O)nc1N(C)C.Cl [Example 12, 1-[2-tert-Butyl-6-(trifluoromethyl)pyrimidin-4-yl]-4-{4-[4-(dimethylamino)-5-methyl-2-oxopyrimidin-1 (2H)-yl]butyl}piperazin-4-ium chloride] | 3.44 nM | 63
15 | CCCc1cc(N2CCN(CCC(C)Cn3cc(C)c(=O)[nH]c3=O)CC2)nc(C(C)(C)C)n1 (centres unmarked) [Example 70, 1-{4-[4-(2-tert-Butyl-6-propylpyrimidin-4-yl)piperazin-1-yl]-2-methylbutyl}-5-methyl-1H-pyrimidine-2,4-dione] | 10 nM | 30
16 | CCCc1cc(N2CCN(CCCCn3cc(F)c(=O)[nH]c3=O)CC2)nc(C(C)(C)C)n1 [Example 53, 1-{4-[4-(2-tert-Butyl-6-propylpyrimidin-4-yl)piperazin-1-yl]butyl}-5-fluoro-1H-pyrimidine-2,4-dione] | 2.32 nM | 56
17 | CC(C)(C)c1cc(N2CCN(CCCCn3ccc(=O)[nH]c3=O)CC2)nc(C(C)(C)C)n1 [Example 33, 1-{4-[4-(2,6-di-tert-Butylpyrimidin-4-yl)piperazin-1-yl]butyl}pyrimidine-2,4(1H,3H)-dione] | 0.7 nM | 42
18 | Cc1ccccc1N1CCN(CCCCn2cc(C)c(=O)[nH]c2=O)CC1 [Example 111, 5-Methyl-1-[4-(4-(o-tolyl)piperazin-1-yl)butyl]-1H-pyrimidine-2,4-dione] | 6.8 nM | 30
19 | Cc1cn(CC(C)CCN2CCN(c3cc(C(F)(F)F)nc(C(C)(C)C)n3)CC2)c(=O)[nH]c1=O (single isomer, unassigned; (-)) [Example 64, (−)-1-{4-[4-(2-tert-Butyl-6-trifluoromethylpyrimidin-4-yl)piperazin-1-yl]-2-methylbutyl}-5-methyl-1H-pyrimidine-2,4-dione] | 2.57 nM | 57
20 | Cc1cccc(N2CCN(CCCCn3cc(C)c(=O)[nH]c3=O)CC2)c1C [Example 128, 1-{4-[4-(2,3-Dimethylphenyl)piperazin-1-yl]butyl}-5-methyl-1H-pyrimidine-2,4-dione] | 2.4 nM | 55
21 | CC(C)(C)c1ccn(CCCCN2CCN(c3cc(C(F)(F)F)nc(C(C)(C)C)n3)CC2)c(=O)n1 [Example 14, 4-tert-Butyl-1-(4-{4-[2-tert-butyl-6-(trifluoromethyl)pyrimidin-4-yl]piperazin-1-yl}butyl)pyrimidin-2(1H)-one] | 2.62 nM | 82
22 | CCCc1cc(N2CCN(CCCCn3ccc(-c4cccs4)nc3=O)CC2)nc(C(C)(C)C)n1 [Example 87, 1-{4-[4-(2-tert-Butyl-6-propylpyrimidin-4-yl)piperazin-1-yl]butyl}-4-thiophen-2-yl-1H-pyrimidin-2-one] | 0.97 nM | 31
23 | CCCc1cc(N2CCN(CCCCn3ccc(C(F)(F)F)nc3=O)CC2)nc(C(C)(C)C)n1 [Example 41, 1-{4-[4-(2-tert-Butyl-6-propylpyrimidin-4-yl)piperazin-1-yl]butyl}-4-trifluoromethyl-1H-pyrimidin-2-one] | 5.78 nM | 62
24 | CC(C)(C)c1nc(N2CCN(CCCCn3cc(Cl)c(=O)[nH]c3=O)CC2)cc(C(F)(F)F)n1 [Example 52, 1-{4-[4-(2-tert-Butyl-6-trifluoromethylpyrimidin-4-yl)piperazin-1-yl]butyl}-5-chloro-1H-pyrimidine-2,4-dione] | 2.28 nM | 97
25 | Cc1cn(CCCCN2CCN(c3cc(C(F)(F)F)nc(C(C)(C)C)n3)CC2)c(=O)n(C)c1=O [Example 25, 1-(4-{4-[2-tert-Butyl-6-(trifluoromethyl)pyrimidin-4-yl]piperazin-1-yl}butyl)-3,5-dimethylpyrimidine-2,4(1H,3H)-dione] | – | 34
26 | Cn1c(=O)ccn(CCCCN2CCN(c3cc(C(F)(F)F)nc(C(C)(C)C)n3)CC2)c1=O [Example 27, 1-(4-{4-[2-tert-Butyl-6-(trifluoromethyl)pyrimidin-4-yl]piperazin-1-yl}butyl)-3-methylpyrimidine-2,4(1H,3H)-dione] | – | 52
